Laboratory results: US20110059114A1, “Compositions and Methods for the Treatment of Radioresistant Glioma Stem Cells” (DUKE UNIVERSITY, priority 2009, published 2011)

What was measured:
T4302 CD133+ cells = assay: Annexin V staining, flow cytometry; format: cell-based, human
Procedure: FIG. 2 is a series of graphs illustrating that γ-secretase inhibitors enhance radiation-induced cell death in glioma stem cells. (A) T4302 CD 133+ cells were pre-treated with DAPT or L685,458 for 4 hours and irradiated at 3 Gy. Percentage of dead cells was determined by trypan blue exclusion assay at 48 hours after radiation exposure. (B) T4302 CD 133+ cells were treated with GSIs ±radiation as indicated. Cells were then plated at 3000 cells per well in 96-well plates. Relative caspase 3/7 activities were determined by normalizing caspase activities to the corresponding cell titers. (C) T4302 CD 133+ cells were treated as described in FIG. 2A. 24 or 48 hours after radiation exposure, cells were labeled with FITC-conjugated Annexin V staining kit (BD Sciences) according to manufacturer's instructions and analyzed by flow cytometry. (D) T4302 CD 133+ cells were pre-treated with 2 μM DAPT for 4 hours, and were left unirradiated or irradiated at 1, 2 or 3 Gy. Relative caspase 3/7 activities were determined at 72 hours after radiation. (E) T4302 CD133+ cells were pre-treated with DAPT at indicated concentrations for 4 hours and irradiated at 3 Gy. Relative caspase activities were determined at 48 or 72 hours after radiation. *: p<0.01 by Student's t-test; #: p<0.01 by one-way ANOVA.

γ-secretase = details: as suggested by the manufacturer; cited from earlier work
Akt = assay: Immunoblotting of phospho-Akt (S473); format: cell-based, human; details: 2 μM DAPT
Procedure: FIG. 5 is a set of immunoblots and a graph illustrating that the Notch pathway regulates radioresistance of glioma stem cells via the Akt pathway and Mcl-1. T4302 CD 133+ cells were infected with control lentivirus or lentivirus directing expression of NICD2. Cells were pre-treated with or without 2 μM DPAT for 4 hours and exposed to 3-Gy radiation. Irradiated cells were collected at 24 or 48 hours after radiation, and sham-irradiated cells were collected at 48 hours after radiation. (A, C, D) Protein levels of phospho-Akt (S473), total Akt, PTEN, Bcl-2, Bcl-xL, Mcl-1, phospho-p53 (S15), total p53 and PUMA were assessed by immunoblotting. Actin was blotted as the loading control. (B) Control cells or NICD2-expressing cells were pre-treated with 10 μM PI3K inhibitor, LY294002, or 50 μM Akt inhibitor III (SH-6), for 4 hours prior to radiation exposure. Relative caspase 3/7 activities were determined at 48 hours after radiation exposure. #: p<0.001, by one-way ANOVA.
FIG. 13 is an immunoblot illustrating that LY294002 or Akt inhibitor III reduce Akt activity in glioma stem cells. T4302 glioma stem cells were treated with 10 μM LY294002 or 50 μM Akt inhibitor III (SH-6) in the presence or absence of radiation. Cells were collected for immunoblotting at 48 hours after radiation as described in FIG. 5.
Antibodies, DNA constructs, lentiviruses and other reagents. […]

CC(NC(=O)Cc1cc(F)cc(F)c1)C(=O)NC(C(=O)OC(C)(C)C)c1ccccc1 [DAPT, N-[N-(3,5-Difluorophenacetyl-L-alanyl)]-S-phenylglycine t-Butyl Ester]
Annexin V-positive labeled cells (T4302 CD133+ cells; 24 hours following 3 Gy radiation): not obvious
Annexin V-positive labeled cells (T4302 CD133+ cells; 48 hours following 3 Gy radiation): significantly increased
percentage of Annexin V-positive cells (T4302 CD133+ cells; NICD2 expression): failed to increase
IC50 (γ-secretase): 200 nM
Akt activation (phospho-S473 Akt) (Akt; 3-Gy radiation, control cells): reduced Akt activation
Akt activities increased by NICD2 expression (Akt; NICD2-expressing cells): partially attenuated but not abolished
